Measurements as given in article PMC11637875, “Discovery of novel PARP1/NRP1 dual-targeting inhibitors with strong antitumor potency” (Frontiers in Pharmacology, 2024).

What was measured:
JAK1 = JAK1 (Homo sapiens, UniProt P23458); test: Selectivity profile (123 kinase panel); assay type: biochemical
ABL1 = ABL1 (Homo sapiens, UniProt P00519); test: Selectivity profile (123 kinase panel); assay type: biochemical
MSK1 = MSK1 (Homo sapiens, UniProt O75582); test: Selectivity profile (123 kinase panel); assay type: biochemical
EPHA7 = EPHA7 (Homo sapiens, UniProt Q15375); test: Selectivity profile (123 kinase panel); assay type: biochemical
ALK = ALK (Homo sapiens, UniProt Q9UM73); test: Selectivity profile (123 kinase panel); assay type: biochemical
DCAMKL1 = DCAMKL1 (Homo sapiens, UniProt O15075); test: Selectivity profile (123 kinase panel); assay type: biochemical
CK1ε = CK1ε (Homo sapiens, UniProt P49674); test: Selectivity profile (123 kinase panel); assay type: biochemical
CK1γ3 = CK1γ3 (Homo sapiens, UniProt Q9Y6M4); test: Selectivity profile (123 kinase panel); assay type: biochemical
NEK1 = NEK1 (Homo sapiens, UniProt Q96PY6); test: Selectivity profile (123 kinase panel); assay type: biochemical
CLK3 = CLK3 (Homo sapiens, UniProt P49761); test: Selectivity profile (123 kinase panel); assay type: biochemical
PARP14 = PARP14 (Homo sapiens, UniProt Q460N5); test: Selectivity profile (other isoforms of PARP and NRP family); assay type: biochemical
HCK = HCK (Homo sapiens, UniProt P08631); test: Selectivity profile (123 kinase panel); assay type: biochemical
DYRK1B = DYRK1B (Homo sapiens, UniProt Q9Y463); test: Selectivity profile (123 kinase panel); assay type: biochemical
JAK3 = JAK3 (Homo sapiens, UniProt P52333); test: Selectivity profile (123 kinase panel); assay type: biochemical
EPHB1 = EPHB1 (Homo sapiens, UniProt P54762); test: Selectivity profile (123 kinase panel); assay type: biochemical
EPHA3 = EPHA3 (Homo sapiens, UniProt P29320); test: Selectivity profile (123 kinase panel); assay type: biochemical
AurC = AurC (Homo sapiens, UniProt Q9UQB9); test: Selectivity profile (123 kinase panel); assay type: biochemical
FLT4 = FLT4 (Homo sapiens, UniProt P35916); test: Selectivity profile (123 kinase panel); assay type: biochemical
MRCKα = MRCKα (Homo sapiens, UniProt Q5VT25); test: Selectivity profile (123 kinase panel); assay type: biochemical
EPHA1 = EPHA1 (Homo sapiens, UniProt P21709); test: Selectivity profile (123 kinase panel); assay type: biochemical
EPHA8 = EPHA8 (Homo sapiens, UniProt P29322); test: Selectivity profile (123 kinase panel); assay type: biochemical
DYRK2 = DYRK2 (Homo sapiens, UniProt Q92630); test: Selectivity profile (123 kinase panel); assay type: biochemical
FGFR4 = FGFR4 (Homo sapiens, UniProt P22455); test: Selectivity profile (123 kinase panel); assay type: biochemical
LCK = LCK (Homo sapiens, UniProt P06239); test: Selectivity profile (123 kinase panel); assay type: biochemical
CHK1 = CHK1 (Homo sapiens, UniProt O14757); test: Selectivity profile (123 kinase panel); assay type: biochemical
NIM1K = NIM1K (Homo sapiens, UniProt Q8IY84); test: Selectivity profile (123 kinase panel); assay type: biochemical
CRAF = CRAF (Homo sapiens, UniProt P04049, Y340D/Y341D); test: Selectivity profile (123 kinase panel); assay type: biochemical
EPHA6 = EPHA6 (Homo sapiens, UniProt Q9UF33); test: Selectivity profile (123 kinase panel); assay type: biochemical
JAK2 = JAK2 (Homo sapiens, UniProt O60674); test: Selectivity profile (123 kinase panel); assay type: biochemical
MST2 = MST2 (Homo sapiens, UniProt Q13188); test: Selectivity profile (123 kinase panel); assay type: biochemical
MCF-10A = test: Cytotoxicity on normal human cells (MTT); assay type: cell-based; settings: MCF-10A normal human mammary epithelial cells
Method: (§1) Cell viability was measured by MTT assays. MDA-MB-231, MCF-10A, L02, FHC, PNT1A, HEL-299, and HEK-293 cell lines were seeded in 96-well plates at 5 ×10^4 cells/well and incubated overnight. Different concentrations of PPNR1-5 or positive control were then added to each well and cultured at 37°C for 72 h. Afterward, the medium was removed. MTT (5 mg/mL) was dissolved in phosphate-buffered saline (PBS) and filter-sterilized, and then, 20 μL of the prepared MTT solution was added to each well, and the cells were incubated for another 4 h until a purple precipitate was visible. The supernatant was removed by centrifugation, and DMSO (150 μL/well) was added to dissolve the insoluble crystals. The absorbance was determined using an enzyme-linked immunosorbent assay reader at a test wavelength of 570 nm. The assays were performed three times in a parallel manner. The non-linear regression was used to plot a Dose-Response-Inhibition to determine the value of the IC50. The cell inhibition rate was calculated at 2 μM concentration of compound treatment. The data were analyzed using GraphPad Prism 9 software.

L02 = test: Cytotoxicity on normal human cells (MTT); assay type: cell-based
Method: as §1

FHC = test: Cytotoxicity on normal human cells (MTT); assay type: cell-based
Method: as §1

HEL-299 = test: Cytotoxicity on normal human cells (MTT); assay type: cell-based; settings: HEL-299 normal human cells
Method: as §1

HEK-293 = test: Cytotoxicity on normal human cells (MTT); assay type: cell-based; settings: HEK293, HEK-293 normal human cells
Method: as §1

PNT1A = test: Cytotoxicity on normal human cells (MTT); assay type: cell-based
Method: as §1

PARP9 = PARP9 (Homo sapiens, UniProt Q8IXQ6); test: Selectivity profile (other isoforms of PARP and NRP family); assay type: biochemical
BMX = BMX (Homo sapiens, UniProt P51813); test: Selectivity profile (123 kinase panel); assay type: biochemical
PARP7 = PARP7 (Homo sapiens, UniProt Q7Z3E1); test: Selectivity profile (other isoforms of PARP and NRP family); assay type: biochemical

Measured: IC50

ALK, sequence (Q9UM73 19-1620): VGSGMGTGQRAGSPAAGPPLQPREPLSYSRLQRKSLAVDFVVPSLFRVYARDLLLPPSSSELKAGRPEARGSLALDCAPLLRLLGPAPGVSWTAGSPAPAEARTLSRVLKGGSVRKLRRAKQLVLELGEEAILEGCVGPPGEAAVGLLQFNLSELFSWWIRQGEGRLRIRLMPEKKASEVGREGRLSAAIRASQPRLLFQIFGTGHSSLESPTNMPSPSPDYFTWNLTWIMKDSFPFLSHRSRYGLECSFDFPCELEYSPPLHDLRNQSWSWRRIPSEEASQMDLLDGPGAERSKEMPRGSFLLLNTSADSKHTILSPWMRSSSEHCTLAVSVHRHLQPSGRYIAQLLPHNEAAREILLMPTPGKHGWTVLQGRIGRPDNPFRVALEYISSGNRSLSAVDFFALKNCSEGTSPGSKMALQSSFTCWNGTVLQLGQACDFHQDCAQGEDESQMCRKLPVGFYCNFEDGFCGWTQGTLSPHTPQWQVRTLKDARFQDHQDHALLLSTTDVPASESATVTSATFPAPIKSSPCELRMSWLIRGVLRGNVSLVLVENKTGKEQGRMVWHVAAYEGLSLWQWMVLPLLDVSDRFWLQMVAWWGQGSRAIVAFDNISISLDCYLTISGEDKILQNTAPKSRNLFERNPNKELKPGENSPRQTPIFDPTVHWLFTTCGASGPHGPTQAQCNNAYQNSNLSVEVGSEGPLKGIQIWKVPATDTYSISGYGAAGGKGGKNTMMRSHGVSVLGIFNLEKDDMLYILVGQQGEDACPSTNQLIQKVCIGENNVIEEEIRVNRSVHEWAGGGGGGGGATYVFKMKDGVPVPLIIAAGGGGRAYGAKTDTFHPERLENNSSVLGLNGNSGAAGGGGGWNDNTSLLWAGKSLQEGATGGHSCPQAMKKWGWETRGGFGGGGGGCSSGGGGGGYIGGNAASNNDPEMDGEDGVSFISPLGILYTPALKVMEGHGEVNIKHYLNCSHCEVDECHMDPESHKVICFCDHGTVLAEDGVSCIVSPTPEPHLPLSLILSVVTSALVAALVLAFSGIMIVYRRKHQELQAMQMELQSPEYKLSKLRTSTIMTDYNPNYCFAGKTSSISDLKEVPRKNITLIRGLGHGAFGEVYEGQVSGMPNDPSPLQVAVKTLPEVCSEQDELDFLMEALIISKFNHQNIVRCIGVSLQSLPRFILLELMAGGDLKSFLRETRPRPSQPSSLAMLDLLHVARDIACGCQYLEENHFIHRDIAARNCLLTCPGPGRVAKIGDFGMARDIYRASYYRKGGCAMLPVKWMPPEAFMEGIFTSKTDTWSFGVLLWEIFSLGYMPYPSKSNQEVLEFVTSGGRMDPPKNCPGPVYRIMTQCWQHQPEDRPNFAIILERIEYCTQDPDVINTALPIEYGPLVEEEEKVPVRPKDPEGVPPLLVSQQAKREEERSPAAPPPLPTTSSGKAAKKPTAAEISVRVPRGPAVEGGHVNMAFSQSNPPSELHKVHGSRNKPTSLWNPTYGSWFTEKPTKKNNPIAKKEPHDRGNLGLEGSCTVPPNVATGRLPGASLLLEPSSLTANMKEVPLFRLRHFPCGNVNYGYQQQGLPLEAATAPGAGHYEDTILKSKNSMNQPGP
EPHA8, sequence (P29322 28-1005, species assumed): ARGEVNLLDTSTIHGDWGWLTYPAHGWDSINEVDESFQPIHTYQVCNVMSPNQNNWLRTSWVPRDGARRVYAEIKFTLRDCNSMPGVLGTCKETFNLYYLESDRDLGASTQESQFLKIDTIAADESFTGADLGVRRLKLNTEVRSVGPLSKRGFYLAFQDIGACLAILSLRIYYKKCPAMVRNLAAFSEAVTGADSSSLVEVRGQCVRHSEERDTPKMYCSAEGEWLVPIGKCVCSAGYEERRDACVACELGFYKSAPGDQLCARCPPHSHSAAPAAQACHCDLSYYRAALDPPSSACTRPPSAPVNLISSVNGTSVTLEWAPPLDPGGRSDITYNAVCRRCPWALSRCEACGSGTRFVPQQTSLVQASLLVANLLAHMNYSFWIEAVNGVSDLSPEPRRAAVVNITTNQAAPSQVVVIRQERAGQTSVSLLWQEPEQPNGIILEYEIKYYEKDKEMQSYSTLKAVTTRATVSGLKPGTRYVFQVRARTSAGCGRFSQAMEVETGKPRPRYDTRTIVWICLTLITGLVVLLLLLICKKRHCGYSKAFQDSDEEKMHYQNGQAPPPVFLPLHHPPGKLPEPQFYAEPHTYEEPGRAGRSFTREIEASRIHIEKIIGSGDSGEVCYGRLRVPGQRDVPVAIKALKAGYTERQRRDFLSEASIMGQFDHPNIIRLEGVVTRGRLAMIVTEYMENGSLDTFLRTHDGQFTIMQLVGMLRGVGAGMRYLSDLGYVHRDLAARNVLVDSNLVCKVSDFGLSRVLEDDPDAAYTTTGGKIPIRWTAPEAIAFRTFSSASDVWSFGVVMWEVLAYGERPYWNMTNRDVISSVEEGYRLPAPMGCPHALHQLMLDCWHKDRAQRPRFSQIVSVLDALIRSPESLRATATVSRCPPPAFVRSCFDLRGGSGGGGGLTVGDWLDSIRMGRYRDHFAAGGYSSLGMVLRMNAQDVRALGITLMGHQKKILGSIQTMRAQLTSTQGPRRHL
NEK1, sequence (Q96PY6 whole entry): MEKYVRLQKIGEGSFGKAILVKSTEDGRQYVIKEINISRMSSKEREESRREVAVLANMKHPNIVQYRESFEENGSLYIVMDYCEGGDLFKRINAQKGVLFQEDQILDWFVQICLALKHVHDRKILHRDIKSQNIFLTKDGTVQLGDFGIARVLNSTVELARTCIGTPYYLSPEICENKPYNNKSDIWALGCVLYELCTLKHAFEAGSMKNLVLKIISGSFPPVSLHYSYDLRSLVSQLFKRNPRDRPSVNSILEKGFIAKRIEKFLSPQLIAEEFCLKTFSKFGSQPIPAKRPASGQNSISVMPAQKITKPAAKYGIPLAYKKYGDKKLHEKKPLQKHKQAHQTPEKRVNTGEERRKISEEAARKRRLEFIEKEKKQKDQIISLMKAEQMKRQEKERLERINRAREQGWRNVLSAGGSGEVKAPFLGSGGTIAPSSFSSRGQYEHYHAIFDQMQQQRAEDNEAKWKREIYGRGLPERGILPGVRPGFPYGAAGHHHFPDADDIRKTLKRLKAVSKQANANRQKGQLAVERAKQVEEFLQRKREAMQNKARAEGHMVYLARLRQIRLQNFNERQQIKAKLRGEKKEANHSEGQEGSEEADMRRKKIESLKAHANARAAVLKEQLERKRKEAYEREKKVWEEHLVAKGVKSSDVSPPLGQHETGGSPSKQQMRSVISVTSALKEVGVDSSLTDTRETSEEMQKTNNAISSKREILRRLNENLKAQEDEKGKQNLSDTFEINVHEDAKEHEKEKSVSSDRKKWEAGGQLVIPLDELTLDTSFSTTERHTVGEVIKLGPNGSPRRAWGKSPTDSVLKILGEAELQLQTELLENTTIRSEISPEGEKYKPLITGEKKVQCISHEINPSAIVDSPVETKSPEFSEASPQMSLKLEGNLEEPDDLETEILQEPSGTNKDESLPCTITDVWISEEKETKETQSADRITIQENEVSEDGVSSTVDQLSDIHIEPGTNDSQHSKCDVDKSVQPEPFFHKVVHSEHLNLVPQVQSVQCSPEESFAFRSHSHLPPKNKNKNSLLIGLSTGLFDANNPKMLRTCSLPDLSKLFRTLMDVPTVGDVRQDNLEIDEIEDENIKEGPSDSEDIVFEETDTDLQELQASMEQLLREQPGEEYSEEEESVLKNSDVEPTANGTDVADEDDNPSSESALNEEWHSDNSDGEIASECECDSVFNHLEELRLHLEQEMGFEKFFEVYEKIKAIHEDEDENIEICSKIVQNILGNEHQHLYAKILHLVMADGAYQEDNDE
JAK1, sequence (P23458 whole entry): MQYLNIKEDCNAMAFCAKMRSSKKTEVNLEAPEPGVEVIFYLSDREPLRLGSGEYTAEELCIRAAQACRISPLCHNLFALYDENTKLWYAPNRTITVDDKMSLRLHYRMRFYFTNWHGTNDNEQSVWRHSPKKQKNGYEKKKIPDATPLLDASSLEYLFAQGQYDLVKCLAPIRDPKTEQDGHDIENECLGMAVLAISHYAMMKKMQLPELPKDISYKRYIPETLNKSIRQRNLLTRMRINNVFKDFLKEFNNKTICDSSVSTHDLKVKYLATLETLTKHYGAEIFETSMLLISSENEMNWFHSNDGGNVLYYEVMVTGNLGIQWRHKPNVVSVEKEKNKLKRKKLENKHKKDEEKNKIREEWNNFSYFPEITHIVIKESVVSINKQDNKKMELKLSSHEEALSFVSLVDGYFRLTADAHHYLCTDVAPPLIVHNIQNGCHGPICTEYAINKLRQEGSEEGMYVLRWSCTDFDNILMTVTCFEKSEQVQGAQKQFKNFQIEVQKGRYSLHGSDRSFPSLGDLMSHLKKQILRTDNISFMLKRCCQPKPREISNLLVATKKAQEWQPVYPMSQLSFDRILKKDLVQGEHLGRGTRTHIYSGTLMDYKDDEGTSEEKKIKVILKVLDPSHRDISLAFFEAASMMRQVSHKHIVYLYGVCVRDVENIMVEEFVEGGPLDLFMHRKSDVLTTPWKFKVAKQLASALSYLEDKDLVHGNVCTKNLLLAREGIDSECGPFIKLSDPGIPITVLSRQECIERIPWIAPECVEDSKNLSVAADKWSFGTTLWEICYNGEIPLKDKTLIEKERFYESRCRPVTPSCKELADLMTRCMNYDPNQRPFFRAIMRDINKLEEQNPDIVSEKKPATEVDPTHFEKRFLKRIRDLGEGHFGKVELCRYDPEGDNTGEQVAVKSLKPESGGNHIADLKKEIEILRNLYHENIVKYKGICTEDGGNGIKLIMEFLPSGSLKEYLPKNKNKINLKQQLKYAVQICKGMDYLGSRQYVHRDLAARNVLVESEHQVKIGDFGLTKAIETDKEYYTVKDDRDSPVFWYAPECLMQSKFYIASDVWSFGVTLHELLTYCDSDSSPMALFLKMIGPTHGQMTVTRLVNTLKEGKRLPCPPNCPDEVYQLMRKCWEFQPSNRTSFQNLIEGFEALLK

NC(N)=NCCC[C@H](NCN1CCN(C(=O)c2cc(Cc3n[nH]c(=O)c4ccccc34)ccc2F)CC1)C(=O)O [PPNR-4]
> 10 µM: all assays above
